Assays:
mouse 11β-HSD1 = biological target: T1, mouse 11β-HSD1 (Mus musculus, UniProt P50172); assay: Enzyme activity analysis on mouse 11β-HSD1 (HTRF cortisol, liver microsomes); type: biochemical; settings: second value of cell
T1 construct: 100 ug/ml human/mouse liver microsomes; from tissue; host or cells: mouse liver microsomes
Summary of the method: (§1)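 Cortisol generated by mouse or human liver microsome 11β-HSD1 during 2 h at 37° C., measured by HTRF competition (cryptate anti-cortisol antibody, d2-cortisol, 2 h room temperature) against a cortisol standard curve. IC50 from percent inhibition versus no-compound control.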

human 11β-HSD1 = biological target: T2, human 11β-HSD1 (Homo sapiens, UniProt P28845); assay: Enzyme activity analysis on human 11β-HSD1 (HTRF cortisol, liver microsomes); type: biochemical; settings: first value of cell
T2 construct: 100 ug/ml human/mouse liver microsomes; from tissue; host or cells: human liver microsomes
Summary of the method: as §1

T1 sequence (P50172 whole entry): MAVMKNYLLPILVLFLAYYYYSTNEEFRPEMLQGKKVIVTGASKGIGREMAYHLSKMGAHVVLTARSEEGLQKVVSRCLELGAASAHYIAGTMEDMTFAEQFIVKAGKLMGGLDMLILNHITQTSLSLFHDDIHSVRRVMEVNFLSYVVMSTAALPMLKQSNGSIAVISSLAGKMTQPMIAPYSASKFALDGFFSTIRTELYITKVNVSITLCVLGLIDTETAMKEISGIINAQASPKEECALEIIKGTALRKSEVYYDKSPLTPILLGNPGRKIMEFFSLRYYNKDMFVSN
T2 sequence (P28845 whole entry): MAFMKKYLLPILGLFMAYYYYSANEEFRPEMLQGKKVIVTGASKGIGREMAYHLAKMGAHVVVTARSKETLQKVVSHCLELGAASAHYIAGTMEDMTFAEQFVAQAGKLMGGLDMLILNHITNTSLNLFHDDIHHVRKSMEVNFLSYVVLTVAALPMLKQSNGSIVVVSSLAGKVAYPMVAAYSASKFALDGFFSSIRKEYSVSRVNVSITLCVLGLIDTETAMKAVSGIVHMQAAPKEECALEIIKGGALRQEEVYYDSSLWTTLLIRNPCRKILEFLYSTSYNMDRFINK

Row | Compound | IC50 (mouse 11β-HSD1) [µM] | IC50 (human 11β-HSD1) [µM]
1 | CC(C)(NS(=O)(=O)c1ccc(Br)cc1)C(=O)NC1C2CC3CC1CC(C(N)=O)(C3)C2 (stereo not drawn) [compound 124] | 0.22 | 0.024
2 | CCN(C(C)(C)C(=O)NC1C2CC3CC1CC(C(N)=O)(C3)C2)S(=O)(=O)c1cccc(Cl)c1C (stereo not drawn) [compound 215] | 0.284 | 0.004
3 | CC(C)(NS(=O)(=O)c1cccc([N+](=O)[O-])c1)C(=O)NC1C2CC3CC1CC(C(N)=O)(C3)C2 (stereo not drawn) [compound 107, N-4-(2-(3-nitrophenylsulfonamido)-2-methylpropanamido)adamantane-1-carboxyamide] | 0.563 | 0.178
4 | COc1ccc(S(=O)(=O)NC(C)(C)C(=O)NC2C3CC4CC2CC(C(N)=O)(C4)C3)cc1 (stereo not drawn) [compound 86, N-4-(2-(4-methoxyphenylsulfonamido)-2-methylpropanamido)adamantane-1-carboxyamide] | > 2.5 | > 2.5
5 | COc1ccc(S(=O)(=O)NC(C)(C)C(=O)NC2C3CC4CC2CC(O)(C4)C3)cc1 (stereo not drawn) [compound 71, N-(5-hydroxyadamantane-2-yl)-2-methyl-2-(4-methoxyphenylsulfonamido)propanamide] | 0.631 | 0.196
6 | CC(C)(NS(=O)(=O)c1ccc(Cl)cc1)C(=O)NC1C2CC3CC(C2)CC1C3 (stereo not drawn) [compound 5, N-(adamantane-2-yl)-2-methyl-2-(4-chlorophenylsulfonamido)propanamide] | 1.05 | 0.43
7 | CNC(=O)C12CC3CC(C1)C(NC(=O)C(C)(C)NS(=O)(=O)c1ccccc1Cl)C(C3)C2 (stereo not drawn) [compound 237, 4-[2-(2-chloro-benzenesulfonylamino)-2-methyl-propionylamino]-adamantane-1-carboxylic acid methylamide] | 0.437 | 1.5
8 | COc1cc([N+](=O)[O-])ccc1S(=O)(=O)NC(C)(C)C(=O)NC1C2CC3CC1CC(C(N)=O)(C3)C2 (stereo not drawn) [compound 128] | 0.22 | 0.076
9 | CN(C(C)(C)C(=O)NC1C2CC3CC1CC(O)(C3)C2)S(=O)(=O)c1ccccc1C(F)(F)F (stereo not drawn) [compound 208, N-(5-hydroxyadamantane-2-yl)-2-(2-trifluoromethyl-N-methylphenylsulfonamido)-2-methylpropanamide] | 0.092 | 0.006
10 | CC(C)(NS(=O)(=O)c1ccccc1C(F)(F)F)C(=O)NC1C2CC3CC(C2)CC1C3 (stereo not drawn) [compound 13, N-(adamantane-2-yl)-2-methyl-2-(2-trifluoromethylphenylsulfonamido)propanamide] | 0.267 | 0.032
11 | CC(C)(NS(=O)(=O)c1cccc(C(F)(F)F)c1)C(=O)NC1C2CC3CC1CC(C(N)=O)(C3)C2 (stereo not drawn) [compound 127] | 0.053 | 0.062
12 | Cc1ccc([N+](=O)[O-])cc1S(=O)(=O)NC(C)(C)C(=O)NC1C2CC3CC(C2)CC1C3 (stereo not drawn) [compound 40, N-(adamantane-2-yl)-2-methyl-2-(5-nitro-2-methylphenylsulfonamido)propanamide] | 1.85 | 0.098
13 | CC(C)(NS(=O)(=O)c1c(Cl)cc(Cl)cc1Cl)C(=O)NC1C2CC3CC1CC(C(N)=O)(C3)C2 (stereo not drawn) [compound 112, N-4-(2-(2,4,6-trichlorophenylsulfonamido)-2-methylpropanamido)adamantane-1-carboxy amide] | 0.011 | 0.024
14 | CC(C)(NS(=O)(=O)c1ccc(OC(F)F)cc1)C(=O)NC1C2CC3CC1CC(C(N)=O)(C3)C2 (stereo not drawn) [compound 93, N-4-(2-(4-difluoromethoxyphenylsulfonamido)-2-methylpropanamido)adamantane-1-carboxyamide] | 0.571 | 0.153
15 | CC(C)(NS(=O)(=O)c1cccnc1Cl)C(=O)NC1C2CC3CC1CC(C(N)=O)(C3)C2 (stereo not drawn) [compound 96, N-4-(2-(2-chloropyridine-3-sulfonamido)-2-methylpropanamido)adamantane-1-carboxyamide] | 0.289 | 0.223

From patent publication US9073830B2 (Hyundai Pharm Co., Ltd., priority 2011, dated 2015)
